For one assay, the system named is SW48 cells. In words: SW48 cell viability assay (CellTiter-Glo). Type of assay: cell-based. Conditions: Homo sapiens. Here is the method: (§1) The inhibitor compound 1 (Cpd-1) (IUPAC name ethyl 9-(3-(2-propylphenyl)-1-(1-phenylethyl)ureido)-2-methoxy-4-oxo-6,7,8,9-tetrahydro-4H-pyrido[1,2-a]pyrimidine-3-carboxylate) was identified as a hit in a high throughput screening campaign of a diverse set of 244,625 compounds in a human TDO2 cellular assay utilizing SW48 cells, which express a high level of endogenous TDO2. TDO2 activity was assessed by measuring the accumulation of the TDO2 product NFK and downstream product KYN in the supernatant. The potent inhibitor compound 2 (Cpd-2) (IUPAC name ethyl 9-(3-(2-isopropylphenyl)-1-((S)-1-phenylethyl)ureido)-2-methoxy-4-oxo-6,7,8,9-tetrahydro-4H-pyrido[1,2-a]pyrimidine-3-carboxylate) was identified during initial structure activity relationship studies of Cpd-1 analogs.
As inhibition of NFK and KYN production can simply be an effect of cytotoxicity, a viability assay (CellTiter-Glo 2.0 Luminescent Cell Viability Assay, Promega Catalog # G9243) was performed in parallel. CellTiter-Glo reagent was added (25 µl/well) to SW48 cell plates, incubated for 15 min at room temperature in the dark and luminescence was measured with the EnVision Multilabel Reader from Perkin Elmer according to the manufacturer’s instructions. […] For each compound concentration the percentage of activity compared to 0% and 100% effect was calculated as average ± STDEV (each concentration measured in duplicate). […]

The target in the next assay is T1, holo-TDO2 (Homo sapiens, UniProt P48775).
T1 construct: a construct encoding amino acids 19–406 of human TDO2 with an N-terminal six histidine tag; His6 (N); PreScission protease cleavage site (linker) (N); made in house; host or cells: E. coli BL21(DE3)
In words: Heme competition by holo-TDO2 UV-VIS absorbance (Soret band). Conditions: 5 µM holo-TDO2, 20 µM inhibitor, 37 °C, up to 6 h. Type of assay: binding. Here is the method: To explore whether the identified apo-binders could compete with heme-binding to TDO2, a UV-visible absorption spectrum of holo-TDO2 was measured in the absence or presence of compounds. […] A shifted Soret peak can indicate a heme protein-ligand interaction, and a reduced intensity indicates loss of protein bound heme (although free heme also absorbs with a peak at approximately 400 nm, it is very poorly soluble).
Fig. 2 The UV-VIS absorption spectrum of holo-TDO2 in the presence of Cpd-1 (A) or Cpd-2 (B) or the vehicle control. […] The increase of absorbance at 280 nm of holo-TDO2 in the presence of Cpd-1 or Cpd-2 compared to the vehicle control is likely due to compound absorbance at this wavelength.
A UV − visible spectra study was performed to evaluate the binding of the compounds. The holo-TDO2 absorbance spectra were measured using a BioTek Synergy multimode reader (Agilent) for wavelengths from 250 to 600 nm in 1 nm increments. 5 µM holo-TDO2 was incubated at 37 °C with 20 µM compounds or DMSO in phosphate buffer supplemented with 0.01% Tween-20 in a 96 well UV compatible plate (Corning #3679) and absorbance was measured before (t = 0 h) and after 2–6 h of incubation.

Another assay deals with T2, human TDO2 (Homo sapiens, UniProt P48775).
T2 construct: SW48 cells, which express a high level of endogenous TDO2; endogenous in cells; host or cells: SW48 cells (ATCC CCL-231)
In words: TDO2 cellular activity assay (SW48 cells, NFK + KYN in supernatant by LCMS). Type of assay: cell-based. The note with it: 24 h, 200 µM Trp. The protocol: as §1
SW48 cells (source: American Type Culture Collection (ATCC), CCL-231) were used to measure the TDO2 inhibitory activity of compounds and were routinely maintained in DMEM high glucose/GlutaMAX^TM/pyruvate (Gibco, 10569010) 90% (v/v), FCS (Gibco, 10500, heat inactivated)10% (v/v), Penicillin/streptomycin (Gibco, 15140) 1% (v/v). […]
The 384 deep well plate containing 3 µl supernatant and 25 µl H2O per well were further processed for LCMS. […] NFK and kynurenine were quantified by LCMS, normalized to the internal standard Trp-(indole-d5) and the sum was calculated. […]

This is an account of results in PMC11561238, “Discovery and binding mode of small molecule inhibitors of the apo form of human TDO2” (Scientific Reports, 2024).

“Also recorded” adds a separate entry of the source. Where only a bound is given, the exact number is not on record here.

T1 sequence (P48775 19-406): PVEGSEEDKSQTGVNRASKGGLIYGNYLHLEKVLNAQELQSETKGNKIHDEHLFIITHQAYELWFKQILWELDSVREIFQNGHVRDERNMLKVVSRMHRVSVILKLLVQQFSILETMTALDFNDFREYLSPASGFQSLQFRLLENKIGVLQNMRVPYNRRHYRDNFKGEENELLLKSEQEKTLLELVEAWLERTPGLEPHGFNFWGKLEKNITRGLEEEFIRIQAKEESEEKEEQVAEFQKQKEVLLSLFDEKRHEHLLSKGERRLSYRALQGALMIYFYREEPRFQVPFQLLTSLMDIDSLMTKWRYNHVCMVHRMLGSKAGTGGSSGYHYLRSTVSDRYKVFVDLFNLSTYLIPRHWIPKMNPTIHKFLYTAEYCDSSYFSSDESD
T2 sequence (P48775 whole entry): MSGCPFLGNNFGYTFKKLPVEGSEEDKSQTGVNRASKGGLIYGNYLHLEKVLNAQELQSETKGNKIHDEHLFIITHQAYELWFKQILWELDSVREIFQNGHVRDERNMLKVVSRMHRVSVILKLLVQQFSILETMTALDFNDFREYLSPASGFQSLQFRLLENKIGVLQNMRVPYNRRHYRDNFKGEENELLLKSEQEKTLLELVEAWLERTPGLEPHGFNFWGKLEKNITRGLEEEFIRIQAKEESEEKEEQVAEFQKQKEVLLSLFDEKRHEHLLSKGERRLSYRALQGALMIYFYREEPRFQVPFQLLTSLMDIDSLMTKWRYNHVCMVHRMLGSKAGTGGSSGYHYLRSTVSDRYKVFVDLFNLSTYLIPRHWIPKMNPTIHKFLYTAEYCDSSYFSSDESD

For the compound `CCCc1ccccc1NC(=O)N(C(C)c1ccccc1)C1CCCn2c1nc(OC)c(C(=O)OCC)c2=O` (stereo not drawn) [Cpd-1, ethyl 9-(3-(2-propylphenyl)-1-(1-phenylethyl)ureido)-2-methoxy-4-oxo-6,7,8,9-tetrahydro-4H-pyrido[1,2-a]pyrimidine-3-carboxylate], the 50% inhibitory concentration (IC50) in the assay with SW48 cells was greater than 10000 nM; at human TDO2 it was 327 nM. Also, on holo-TDO2, the “Soret band (405 nm) intensity of holo-TDO2 absorption spectrum” value is on record as “clear time-dependent reduction in the Soret band intensity; also recorded: reduction of the absorbance peak at 405 nm”.

Turning to `CCOC(=O)c1c(OC)nc2n(c1=O)CCCC2N(C(=O)Nc1ccccc1C(C)C)[C@@H](C)c1ccccc1` (mixture of isomers) [Cpd-2, ethyl 9-(3-(2-isopropylphenyl)-1-((S)-1-phenylethyl)ureido)-2-methoxy-4-oxo-6,7,8,9-tetrahydro-4H-pyrido[1,2-a]pyrimidine-3-carboxylate], the IC50 in the assay with SW48 cells was greater than 10000 nM; at human TDO2, 14.8 nM. On holo-TDO2, the “Soret band (405 nm) intensity of holo-TDO2 absorption spectrum” value is given as “clear time-dependent reduction in the Soret band intensity; also recorded: reduction of the absorbance peak at 405 nm”.
